Here are results for eleven molecules from ChEMBL document CHEMBL3616465, “Neutrophil elastase inhibitors for the treatment of (cardio)pulmonary diseases: Into clinical testing with pre-adaptive pharmacophores” (Bioorg Med Chem Lett, 2015).

Series [1] concerns the target T1, Neutrophil elastase (Homo sapiens, UniProt P08246).
T1 sequence (P08246 whole entry): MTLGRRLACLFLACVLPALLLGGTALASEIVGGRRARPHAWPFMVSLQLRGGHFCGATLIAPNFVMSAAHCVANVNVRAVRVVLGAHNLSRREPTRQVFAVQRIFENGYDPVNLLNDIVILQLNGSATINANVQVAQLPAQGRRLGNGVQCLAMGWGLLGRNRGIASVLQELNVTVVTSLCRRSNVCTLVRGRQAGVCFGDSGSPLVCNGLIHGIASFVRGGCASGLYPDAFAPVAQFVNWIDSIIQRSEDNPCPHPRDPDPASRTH
Description: (§1) Inhibition of neutrophil elastase in human whole blood using MeO-Succ-Ala-Ala-Pro-Val-pNA as substrate after 30 mins by colorimetric analysis

Series [2] deals with T1, Neutrophil elastase. In words: Inhibition of human neutrophil elastase using MeO-Succ-Ala-Ala-Pro-Val-AMC as substrate after 30 mins by fluorescence assay.
In another series the target is Pancreatic elastase (Sus scrofa, UniProt P08419+P00772). Kind of series: Inhibition of porcine pancreatic elastase using as succinyl-Ala-Ala-Ala-p-nitroanilide as substrate measured every 1 min by spectrophotometric analysis. Format: protein assay.
The nature of series [3]: Half life in human hepatocytes at 1 uM by LC/MS-MS analysis.
Series [4] can be described thus: Half life in po dosed human administered as qd. Particulars: in vivo. Format: ADME, organism-based.
Series [5] concerns the target T1, Neutrophil elastase. In words: Inhibition of neutrophil elastase in human plasma using MeOSuc-Ala-Ala-Pro-Val-AMC as substrate by fluorescence assay.
Series [6] has as its target T1, Neutrophil elastase. Kind of series: Inhibition of human neutrophil elastase.
The nature of series [7]: Selectivity ratio of IC50 for mouse neutrophil elastase to IC50 for human neutrophil elastase.
Series [8] has as its target T1, Neutrophil elastase. Kind of series: Inhibition of human neutrophil elastase using MeO-Suc-Ala-Ala-Pro-Val 7-amido-4-methylcoumarin as substrate preincubated for 15 mins followed by substrate addition measured after 90 mins.
Series [9] is filed under the species Homo sapiens. In words: Selectivity ratio of IC50 for human CatG to IC50 for human neutrophil elastase.
Series [10] is filed under the species Homo sapiens. In words: Selectivity ratio of IC50 for human PR3 to IC50 for human neutrophil elastase.
The test system of series [11] is Homo sapiens. Kind of series: Inhibition of sputum neutrophil count in cystic fibrosis patient at 60 mg/kg, po bid measured at 24 hrs relative to control. The series is classed as functional.
The species named for series [12] is Homo sapiens. In words: Selectivity ratio of IC50 for human chymotrypsin to IC50 for human neutrophil elastase.
The species named for series [13] is Homo sapiens. Kind of series: Selectivity ratio of IC50 for human trypsin to IC50 for human neutrophil elastase.
Series [14] in a line: Selectivity ratio of IC50 for rat neutrophil elastase to IC50 for human neutrophil elastase.
Series [15] is described as follows: Selectivity ratio of IC50 for porcine pancreatic elastase to IC50 for human neutrophil elastase.
For series [16], the target named is T2, Neutrophil elastase (Homo sapiens) (UniProt P08246).
T2 sequence (whole entry): T1 sequence (P08246 whole entry)
The note with it: Blood.
Description: as §1

`CCc1cc(OC)cc2nc(-c3cccnc3N3CC[C@H](N(C)C)C3)oc(=O)c12` showed an IC50 against Neutrophil elastase [1] of 7 nM.
In turn, `COC(=O)C1=C(C)N(c2cccc(C(F)(F)F)c2)c2n[nH]c(=O)n2[C@@H]1c1ccc(C#N)cc1CCCN(C)C` yielded an IC50 against Neutrophil elastase [2] below 20 nM.
Take `CC(C)(C)C(=O)Oc1ccc(S(=O)(=O)Nc2ccccc2C(=O)NCC(=O)[O-])cc1.[Na+]`: at Pancreatic elastase, the IC50 came to 5600 nM.
`CS(=O)(=O)c1cc(C#N)ccc1[C@@H]1C2=C(CCC2=O)N(c2cccc(C(F)F)c2)C(=O)N1C(=O)NC1CC1`: the half-life at 1 µM in series [3] was above 2.17 h.
In the case of `CC1=C(C#N)[C@@H](c2ccc(C#N)cc2S(C)(=O)=O)N(C)C(=O)N1c1cccc(C(F)(F)F)c1`, in [4], the half-life is 120 h.
Consider `CNC(=O)N1C(=O)N(c2cccc(C(F)(F)F)c2)C2=C(C(=O)CC2)[C@H]1c1ccc(C#N)cc1S(C)(=O)=O`, for which the half-life at 1 µM in series [3] was above 2.17 h. Also, the IC50 at Neutrophil elastase [5] and against Neutrophil elastase [2] was below 1 nM in each case.
As to `Cc1c(-c2ccnn2-c2ccc(C#N)cc2)cn2nc(NC(=O)CN(C)C)nc2c1-c1cccc(C(F)(F)F)c1`, at Neutrophil elastase [6], the IC50 is below 20 nM.
Turning to `N#Cc1ccc([C@H]2NC(=O)N(c3cccc(C(F)(F)F)c3)C3=C2C(=O)CC3)cc1`, the half-life at 1 µM in series [3] was above 2.17 h.
Turning to `Cc1c(-c2ccnn2C)cc(C(=O)NCc2ccc(S(C)(=O)=O)cn2)c(=O)n1-c1cccc(C(F)(F)F)c1`, the Ratio IC50 in series [7] was 24; in the series filed under Homo sapiens [9], above 680; in the series filed under Homo sapiens [10], above 1900; in the series listed under Homo sapiens [12], above 2000; in the series listed under Homo sapiens [13], above 2000; in series [14] it was 18. Moreover, the Ratio IC50 in series [15] is above 2000. The molecule further gave a Ki at Neutrophil elastase [8] of 12 nM. In the series on Homo sapiens [11], this molecule displayed an inhibition in vivo at 60 mg/kg of 50%.
`CC(C)C[C@H]1C(=O)N(COC(=O)Cc2ccccc2Nc2c(Cl)cccc2Cl)S(=O)(=O)N1C`: the K in series [16] worked out at 9.8 ×10⁵ /M/s.
As for `CS(=O)(=O)c1cc(C#N)ccc1[C@@H]1C2=C(CCC2=O)N(c2cccc(C(F)(F)F)c2)C(=O)N1CC#N`, the half-life at 1 µM in series [3] is above 2.17 h. Further, the IC50 against Neutrophil elastase [5] and on Neutrophil elastase [2] was below 1 nM each time.

What is called IC50 is the midpoint of a concentration-inhibition curve. Usually half-life stands for the time in which the quantity being followed falls by half. A higher half-life goes with slow loss. The Ki is the equilibrium dissociation constant of an inhibitor or competing ligand from its target. One may read the inhibition in vivo as the percentage by which the read-out fell short of the control. A high value points to a strong effect.
